Measured values: patent publication US6653334B1, “Benzoxazole compound and pharmaceutical composition containing the same” (Kowa Co., Ltd., priority 2002, dated 2003)

Legend:
Assay type in all cases: cell-based
hPPARα = target: T1, hPPARα (Homo sapiens, UniProt Q07869); experiment: PPAR transfection (luciferase reporter) assay in COS cells, hPPARα; conditions: agonist activity, transiently transfected COS cells, 16 hours incubation; read-out: hPPAR; EC50 α
T1 construct: expressed in transfected cells; host or cells: COS cells (Cercopithecus aethiops kidney)
T1 sequence (Q07869 1-468): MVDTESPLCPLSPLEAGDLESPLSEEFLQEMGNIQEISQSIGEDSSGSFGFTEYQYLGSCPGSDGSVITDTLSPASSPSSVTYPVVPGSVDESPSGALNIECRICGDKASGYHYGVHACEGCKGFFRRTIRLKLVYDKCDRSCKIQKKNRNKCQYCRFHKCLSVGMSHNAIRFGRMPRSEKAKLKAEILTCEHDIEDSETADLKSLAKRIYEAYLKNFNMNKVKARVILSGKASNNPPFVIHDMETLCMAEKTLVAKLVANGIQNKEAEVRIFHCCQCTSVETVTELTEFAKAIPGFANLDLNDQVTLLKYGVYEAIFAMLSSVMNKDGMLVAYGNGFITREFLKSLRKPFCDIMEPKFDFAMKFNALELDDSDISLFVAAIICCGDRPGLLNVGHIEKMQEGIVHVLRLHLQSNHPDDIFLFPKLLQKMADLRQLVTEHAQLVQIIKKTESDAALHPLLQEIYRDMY

hPPARγ = target: T2, hPPARγ (Homo sapiens, UniProt P37231); experiment: PPAR transfection (luciferase reporter) assay in COS cells, hPPARγ; conditions: agonist activity, transiently transfected COS cells, 16 hours incubation; read-out: hPPAR; EC50 γ
T2 construct: expressed in transfected cells; host or cells: COS cells (Cercopithecus aethiops kidney)
T2 sequence (P37231 1-505): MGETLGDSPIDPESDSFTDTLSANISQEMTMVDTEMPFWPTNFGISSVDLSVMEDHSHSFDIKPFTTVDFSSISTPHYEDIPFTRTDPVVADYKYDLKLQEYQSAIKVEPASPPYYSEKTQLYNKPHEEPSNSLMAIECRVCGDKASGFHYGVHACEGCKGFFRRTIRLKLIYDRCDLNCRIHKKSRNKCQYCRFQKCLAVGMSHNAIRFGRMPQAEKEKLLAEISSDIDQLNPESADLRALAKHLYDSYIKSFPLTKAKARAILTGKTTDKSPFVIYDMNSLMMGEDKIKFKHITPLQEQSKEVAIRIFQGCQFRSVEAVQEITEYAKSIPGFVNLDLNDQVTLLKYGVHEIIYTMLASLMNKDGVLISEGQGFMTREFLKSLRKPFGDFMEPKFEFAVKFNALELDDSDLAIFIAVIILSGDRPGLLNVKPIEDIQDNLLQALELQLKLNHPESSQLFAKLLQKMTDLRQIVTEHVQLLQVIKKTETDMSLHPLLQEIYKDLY

hPPARδ = target: T3, hPPARδ (Homo sapiens, UniProt Q03181); experiment: PPAR transfection (luciferase reporter) assay in COS cells, hPPARδ; conditions: agonist activity, transiently transfected COS cells, 16 hours incubation; read-out: hPPAR; EC50 δ
T3 construct: expressed in transfected cells; host or cells: COS cells (Cercopithecus aethiops kidney)
T3 sequence (Q03181 1-441): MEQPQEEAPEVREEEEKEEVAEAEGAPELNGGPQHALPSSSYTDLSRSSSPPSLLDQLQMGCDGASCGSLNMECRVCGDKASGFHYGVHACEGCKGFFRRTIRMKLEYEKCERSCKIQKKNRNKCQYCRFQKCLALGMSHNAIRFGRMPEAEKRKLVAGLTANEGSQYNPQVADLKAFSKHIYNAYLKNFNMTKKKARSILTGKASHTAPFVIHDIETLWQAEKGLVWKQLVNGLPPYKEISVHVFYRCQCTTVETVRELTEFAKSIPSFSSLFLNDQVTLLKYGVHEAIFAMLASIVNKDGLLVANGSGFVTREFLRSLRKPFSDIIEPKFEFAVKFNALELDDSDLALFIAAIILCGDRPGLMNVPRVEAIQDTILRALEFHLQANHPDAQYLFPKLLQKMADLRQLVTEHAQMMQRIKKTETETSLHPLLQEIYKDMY

| EC50 (hPPARα) | EC50 (hPPARγ) | EC50 (hPPARδ) | Compound |
| --- | --- | --- | --- |
| 1 nM | 400 nM | > 10000 nM | CC(Oc1cccc(CN(CCCc2ccccc2)c2nc3ccccc3o2)c1)C(=O)O (stereo not drawn) [Example 70, 2-[3-[[N-(Benzoxazol-2-yl)-N-(3-phenylpropyl)]aminomethyl]phenoxy]propionic Acid] |
| 100 nM | > 10000 nM | > 10000 nM | CCCN(Cc1cccc(OC(C)C(=O)O)c1)c1nc2ccccc2o1 (stereo not drawn) [Example 74, 2-[3-[[N-(Benzoxazol-2-yl)-N-n-propyl]aminomethyl]phenoxy]propionic Acid] |
| 10 nM | 400 nM | > 10000 nM | CCN(CCCc1ccc(OC(C)(C)C(=O)O)cc1)c1nc2ccccc2o1 [Example 114, 2-[4-[3-[N-(Benzoxazol-2-yl)-N-ethyl]aminopropyl]phenoxy]-2-methylpropionic Acid] |
| 4 nM | 100 nM | > 10000 nM | CC#CCN(CCCc1cccc(OC(C)(C)C(=O)O)c1)c1nc2ccccc2o1 [Example 121, 2-[3-[3-[N-(Benzoxazol-2-yl)-N-(2-butynyl)]aminopropyl]phenoxy]-2-methylpropionic Acid] |
| 30 nM | 2000 nM | > 10000 nM | CCCN(CCCc1ccc(OC(C)(C)C(=O)O)cc1)c1nc2ccccc2o1 [Example 132, 2-[4-[3-[N-(Benzoxazol-2-yl)-N-n-propyl]aminopropyl]phenoxy]-2-methylpropionic Acid] |
| 10 nM | 300 nM | 3000 nM | CC(C)N(CCCc1ccc(OC(C)(C)C(=O)O)cc1)c1nc2ccccc2o1 [Example 133, 2-[4-[3-[N-(Benzoxazol-2-yl)-N-isopropyl]aminopropyl]phenoxy]-2-methylpropionic Acid] |
| 10 nM | > 10000 nM | > 10000 nM | CC(C)(Oc1cccc(CN(Cc2cccc3ccccc23)c2nc3ccccc3o2)c1)C(=O)O [Example 135, 2-[3-[[N-(Benzoxazol-2-yl)-N-(naphth-1-ylmethyl)]aminomethyl]phenoxy]-2-methylpropionic Acid] |
| 10 nM | 500 nM | 300 nM | CCCCCCCCN(CCCc1ccccc1OC(C)(C)C(=O)O)c1nc2ccccc2o1 [Example 155, 2-[2-[3-[N-(Benzoxazol-2-yl)-N-n-octyl]aminopropyl]phenoxy]-2-methylpropionic Acid] |
| 10 nM | 200 nM | > 10000 nM | CC(C)(Oc1cccc(CN(Cc2ccc(Cl)cc2)c2nc3ccccc3o2)c1)C(=O)O [compound 1] |

Further lines, the compound ahead of its results:

| Compound | EC50 (hPPARα) | EC50 (hPPARγ) | EC50 (hPPARδ) |
| --- | --- | --- | --- |
| CCCCCCCCN(Cc1cccc(OC(C)(C)C(=O)O)c1)c1nc2ccccc2o1 [Example 6, 2-[3-[[N-(Benzoxazol-2-yl)-N-n-octyl]aminomethyl]phenoxy]-2-methylpropionic Acid] | 10 nM | 200 nM | > 10000 nM |
| CC(C)(Oc1ccc(CN(Cc2cccc3ccccc23)c2nc3ccccc3o2)cc1)C(=O)O [Example 12, 2-[4-[[N-(Benzoxazol-2-yl)-N-(naphth-1-ylmethyl)]aminomethyl]phenoxy]-2-methylpropionic Acid] | 3 nM | 100 nM | 500 nM |
| CC(C)(Oc1ccc(CN(Cc2ccccc2[N+](=O)[O-])c2nc3ccccc3o2)cc1)C(=O)O [Example 29, 2-[4-[[N-(Benzoxazol-2-yl)-N-(2-nitrobenzyl)]aminomethyl]phenoxy]-2-methylpropionic Acid] | 100 nM | > 10000 nM | > 10000 nM |
| CN(C)c1ccc(CN(Cc2cccc(OC(C)(C)C(=O)O)c2)c2nc3ccccc3o2)cc1 [Example 41, 2-[3-[[N-(Benzoxazol-2-yl)-N-(4-dimethylaminobenzyl)]aminomethyl]phenoxy]-2-methylpropionic Acid] | 10 nM | 200 nM | 1800 nM |
| CCCCCCCN(Cc1cccc(OCC(=O)O)c1)c1nc2ccccc2o1 [Example 46, 3-[[N-(Benzoxazol-2-yl)-N-n-heptyl]aminomethyl]phenoxyacetic Acid] | 10 nM | 400 nM | 1100 nM |
| CCCCCCCCN(Cc1cccc(OCC(=O)O)c1)c1nc2ccccc2o1 [Example 48, 3-[[N-(Benzoxazol-2-yl)-N-n-octyl]aminomethyl]phenoxyacetic Acid] | 10 nM | 700 nM | 4500 nM |
| CCC(Oc1cccc(CN(CCCc2ccccc2)c2nc3ccccc3o2)c1)C(=O)O (stereo not drawn) [Example 55, 2-[3-[[N-(Benzoxazol-2-yl)-N-(3-phenylpropyl)]aminomethyl]phenoxy]butyric Acid] | 2 nM | 100 nM | 600 nM |
| CCC(Oc1cccc(CN(CCCc2ccc(Cl)cc2)c2nc3ccccc3o2)c1)C(=O)O (stereo not drawn) [Example 56, 2-[3-[[N-(Benzoxazol-2-yl)-N-(3-(4-chlorophenyl)propyl)]aminomethyl]phenoxy]butyric Acid] | 1 nM | 100 nM | 1000 nM |
| CCCCCCCCN(Cc1cccc(OC(CC)C(=O)O)c1)c1nc2ccccc2o1 (stereo not drawn) [Example 59, 2-[3-[[N-(Benzoxazol-2-yl)-N-n-octyl]aminomethyl]phenoxy]butyric Acid] | 3 nM | 100 nM | > 10000 nM |
| CC(Oc1cccc(CN(CCCc2ccc(Cl)cc2)c2nc3ccccc3o2)c1)C(=O)O (stereo not drawn) [Example 63, 2-[3-[[N-(Benzoxazol-2-yl)-N-(3-(4-chlorophenyl)propyl)]aminomethyl]phenoxy]propionic Acid] | 2 nM | 100 nM | 900 nM |
| CCCCCCCCN(Cc1cccc(OC(C)C(=O)O)c1)c1nc2ccccc2o1 (stereo not drawn) [Example 69, 2-[3-[[N-(Benzoxazol-2-yl)-N-n-octyl]aminomethyl]phenoxy]propionic Acid] | 0.3 nM | 200 nM | > 10000 nM |
